Measured values published in patent US9067894B1, “Compound, composition, and method of activating GIRK potassium channel and use of same for treating conditions of interest” (Vanderbilt University, priority 2013, dated 2015).

Tests used:
[1] = target: T1, Serotonin 5-HT1A (Homo sapiens, UniProt P08908); assay: Radioligand displacement (Ricerca); assay type: binding
T1 construct: Ricerca (contract laboratory that ran the panel)

[2] = target: T2, hERG (Homo sapiens, UniProt Q12809); assay: Radioligand displacement (Ricerca); assay type: binding
T2 construct: Ricerca (contract laboratory that ran the panel)
T2 sequence (Q12809 whole entry): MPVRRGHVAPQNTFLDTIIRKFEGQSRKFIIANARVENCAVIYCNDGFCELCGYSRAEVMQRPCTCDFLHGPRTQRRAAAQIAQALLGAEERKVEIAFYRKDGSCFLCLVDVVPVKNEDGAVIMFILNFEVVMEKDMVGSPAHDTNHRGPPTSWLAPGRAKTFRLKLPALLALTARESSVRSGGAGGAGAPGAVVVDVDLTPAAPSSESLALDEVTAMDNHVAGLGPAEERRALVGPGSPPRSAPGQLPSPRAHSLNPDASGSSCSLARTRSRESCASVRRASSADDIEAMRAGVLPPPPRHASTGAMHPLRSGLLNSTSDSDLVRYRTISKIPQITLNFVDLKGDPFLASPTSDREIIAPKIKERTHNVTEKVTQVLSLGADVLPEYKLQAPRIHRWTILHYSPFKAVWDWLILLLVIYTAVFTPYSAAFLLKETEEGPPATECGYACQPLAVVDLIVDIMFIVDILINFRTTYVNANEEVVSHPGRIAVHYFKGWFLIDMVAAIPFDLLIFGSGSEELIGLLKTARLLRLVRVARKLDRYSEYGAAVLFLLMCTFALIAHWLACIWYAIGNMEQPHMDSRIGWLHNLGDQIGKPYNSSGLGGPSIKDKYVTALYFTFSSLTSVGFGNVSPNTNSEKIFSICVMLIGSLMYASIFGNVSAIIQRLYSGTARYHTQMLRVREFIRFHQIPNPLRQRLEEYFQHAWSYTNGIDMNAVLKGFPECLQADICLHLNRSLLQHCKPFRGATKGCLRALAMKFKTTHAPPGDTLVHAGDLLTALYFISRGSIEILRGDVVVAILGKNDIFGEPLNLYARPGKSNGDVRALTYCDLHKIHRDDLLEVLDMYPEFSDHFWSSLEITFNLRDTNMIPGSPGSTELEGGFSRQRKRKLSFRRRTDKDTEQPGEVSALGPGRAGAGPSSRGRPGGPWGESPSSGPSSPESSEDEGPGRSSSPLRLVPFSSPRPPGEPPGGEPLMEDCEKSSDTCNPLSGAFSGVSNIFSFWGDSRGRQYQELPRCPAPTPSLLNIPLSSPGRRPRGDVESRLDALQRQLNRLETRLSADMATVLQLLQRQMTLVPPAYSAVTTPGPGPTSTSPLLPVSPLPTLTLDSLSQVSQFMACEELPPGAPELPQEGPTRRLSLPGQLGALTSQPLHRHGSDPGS

T1 sequence (P08908 whole entry): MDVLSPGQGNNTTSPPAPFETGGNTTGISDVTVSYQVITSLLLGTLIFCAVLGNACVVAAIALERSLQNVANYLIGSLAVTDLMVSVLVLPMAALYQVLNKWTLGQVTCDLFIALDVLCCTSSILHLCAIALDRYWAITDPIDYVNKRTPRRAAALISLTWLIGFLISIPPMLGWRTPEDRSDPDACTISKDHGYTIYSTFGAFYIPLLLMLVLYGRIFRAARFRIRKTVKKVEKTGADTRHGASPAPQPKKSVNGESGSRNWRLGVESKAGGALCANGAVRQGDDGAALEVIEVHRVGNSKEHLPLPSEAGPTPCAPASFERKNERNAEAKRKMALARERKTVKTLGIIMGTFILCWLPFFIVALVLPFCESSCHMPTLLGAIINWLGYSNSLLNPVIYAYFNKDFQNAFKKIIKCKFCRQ

Cc1cc(NC(=O)Nc2ccc(F)c(F)c2)n(-c2ccccc2)n1 [VU0456810, 1-(3,4-difluorophenyl)-3-(3-methyl-1-phenyl-1H-pyrazol-5-yl)urea]
inhibition at 10 µM [1]: 0%
inhibition at 10 µM [2]: 10%
